Laboratory results from ChEMBL document CHEMBL1158914, “Antitumor agents, 115. Seselidiol, a new cytotoxic polyacetylene from Seseli mairei” (1990).
In brackets after ≈: the same amount, converted by molar mass.

What was measured:
Assay type in all cases: functional
KB = experiment: Cytotoxicity against human KB cells; settings: read-out: ED50 (the source's name)
P388 [1] = experiment: Cytotoxicity against mouse P388 cells; settings: read-out: ED50 (the source's name)
L1210 = experiment: Cytotoxicity against mouse L1210 cells; settings: read-out: ED50 (the source's name)
HCT-8 = experiment: Cytotoxicity against human HCT8 cells; settings: read-out: ED50 (the source's name)
P388 [2] = experiment: Antileukemic activity against mouse P388 cells xenografted in mouse at 3 mg/kg after 3 days relative to control

Row | SMILES | EC50 (KB) | EC50 (P388 [1]) | EC50 (L1210) | EC50 (HCT-8) | T/C (P388 [2])
1 | C=CC(=O)C#CC#C/C=C\C(=O)CCCCCCC | > 10 µg/mL | > 10 µg/mL | > 10 µg/mL | 3.7 µg/mL (≈ 14.4 µM) | –
2 | CCC[C@@H](O)/C=C/C=C/C=C/C#CC#CCCCO [CICUTOXIN] | 2 µg/mL (≈ 7.74 µM) | – | – | – | 165%
3 | COc1cccc2c1C(=O)c1c(O)c3c(c(O)c1C2=O)C[C@@](O)(C(=O)CO)C[C@@H]3O[C@H]1C[C@H](N)[C@H](O)[C@H](C)O1.Cl [DOXORUBICIN HYDROCHLORIDE] | – | – | – | 0.3 µg/mL | –
4 | COc1cc([C@@H]2c3cc4c(cc3[C@@H](O[C@@H]3O[C@@H]5CO[C@@H](C)O[C@H]5[C@H](O)[C@H]3O)[C@H]3COC(=O)[C@H]23)OCO4)cc(OC)c1O [ETOPOSIDE] | 0.1 µg/mL (≈ 0.17 µM) | 2.6 µg/mL (≈ 4.42 µM) | 1.6 µg/mL (≈ 2.72 µM) | – | –
5 | C=CC(C#CC#C/C=C\C(CCCCCCC)OC(C)=O)OC(C)=O (stereo not drawn) [SESELIDIOL DIACETATE] | 4 µg/mL | 5.2 µg/mL | 5.5 µg/mL | 7.8 µg/mL | –
6 | C=CC(O)C#CC#C/C=C\C(O)CCCCCCC (stereo not drawn) [SESELIDIOL] | 1 µg/mL (≈ 3.84 µM) | 4.9 µg/mL (≈ 18.8 µM) | 3.3 µg/mL (≈ 12.7 µM) | 10 µg/mL (≈ 38.4 µM) | –
